Assay results from patent US20190017999A1, “IN VITRO SKIN IMMUNE SYSTEM SIMULATION SYSTEM” (Seoul National University R&DB Foudation, priority 2015, published 2019).
Entries after “also recorded” stand apart in the source; their conditions may differ.

B1: IL-1a: typical factor occurring in the peritumoral environment and inflammatory conditions (protein, UniProt P01583 113-271, looked up)
Interleukin-1 alpha: SAPFSFLSNVKYNFMRIIKYEFILNDALNQSIIRANDQYLTAAALHNLDEAVKFDMGAYKSSKDDAKITVILRISKTQLYVTAQDEDQPVLLKEMPEIPKTITGSETNLLFFWETHGTKNYFTSVAHPNLFIATKQDYWVCLAGGPPSITDFQILENQA

Assays:
Type in all cases: cell-based, human
[1] = test system: VE-cadherin; assay: VE-cadherin immunostaining of cell-cell junctions in microvessels; settings: 5 ng/ml TNF-α-treated microvessels versus control microvessels (FIG. 5B)
Description: (§1) Human umbilical vein endothelial cells (HUVEC, Lonza) were cultured in endothelial cell growth medium (EGM-2, Lonza). Normal human lung fibroblasts (LF, Lonza) were cultured in fibroblast growth medium (FGM-2, Lonza). Human glioblastoma cells (U87MG, ATCC, Virginia) were cultured in DMEM medium supplemented with 10% fetal bovine serum (FBS), penicillin (100 U/ml) and streptomycin (100 U/ml). MDA-MA-231 cells were purchased from the ATCC (Manassas, Va.). MDA-MB-231 cells were transfected with a pEGFP plasmid, and cells were selected using 1 mg/ml G418 (A.G. scientific, Inc.). […]
For microvascular DIC (Differential Interference Contrast Microscope) imaging, the Nikon AE31 microscope was used. […] Confocal images were analyzed using IMARIS software (Bitplane, Switzerland). For fluorescence imaging, FITC-dextran-injected samples were imaged using the IX81 inverted microscope (Olympus).
As a vessel to assess the transendothelial migration of MDA-MB-231 cancer cells, the microvessel obtained in the present invention was used. […] The number of cancer cells intravasated into the microvessels was manually counted. […] In addition, the effect of TNF-α on cancer cell intravasation was analyzed. the rate of intravasation with or without TNF-α treatment was compared (n=7 chips per condition). […]

[2] = test system: MDA-MB-231 cancer cells intravasating into microvessels; assay: Cancer intravasation assay in microfluidic chip
Description: as §1, with “Inc.). MDA-MA-231 GFP cells obtained from monoclones were incubated in RPMI1640 (WELGENE, Korea) supplemented with 10% fetal bovine serum, 1% penicillin/streptomycin (Gibco, BRL) and 250 μg/ml G418 (A.G. scientific, Inc.).” for “Inc.).”
(§2) For the quantification of cancer angiogenesis, sprout area and the number of sprouts were manually quantified by using Image J. For quantification of cancer intravasation, the microvessels were stained with CD31 and fluorescence imaged, and cancer cells at the apical side of the microvessel were manually counted using the IMARIS software.
As a vessel to assess the transendothelial migration of MDA-MB-231 cancer cells, the microvessel obtained in the present invention was used. […] The number of cancer cells intravasated into the microvessels was manually counted. […]

[3] = test system: microvessels (HUVEC); assay: Microvessel permeability coefficient by time-lapse FITC-dextran imaging; settings: 5 ng/ml TNF-α over 24 h
Description: as §1
To quantify the success rate of the smooth and continuous boundary of microvessels, the length of the vessel boundary was measured, and compared with the straight-line length of the blood vessel channel along the microvessel by use of image J. When the boundary length value was within ±10% of the linear length of the vascular channel, the chip was regarded as success. […] The acquired time-lapse image was analyzed using Image J, and the permeability coefficient was calculated using Equation 1 below: […]
The present inventors introduced 20 kDa FITC-dextran solution into the microvessel to verify the patency of the lumen, and visualized the behavior of the lumen using fluorescence microscopy. […] The present inventors analyzed the junctions by fluorescent immunostaining for claudin-5 and ZO-1 (FIGS. 3C and 3D). […]

[4] = test system: blood vessels and pericytes (HUVEC-pericyte co-culture); assay: Response of co-cultured blood vessels and pericytes to added factors; settings: factor added to blood vessel-pericyte co-culture of Example 5; compared to control group (FIG. 13)
[5] = test system: HUVEC microvessels with U87MG cells; assay: Cancer angiogenesis assay in microfluidic chip (angiogenic sprouting from microvessels induced by U87MG cells); settings: bevacizumab 500 μg/ml
Description: Human umbilical vein endothelial cells (HUVEC, Lonza) were cultured in endothelial cell growth medium (EGM-2, Lonza). Normal human lung fibroblasts (LF, Lonza) were cultured in fibroblast growth medium (FGM-2, Lonza). Human glioblastoma cells (U87MG, ATCC, Virginia) were cultured in DMEM medium supplemented with 10% fetal bovine serum (FBS), penicillin (100 U/ml) and streptomycin (100 U/ml). MDA-MA-231 cells were purchased from the ATCC (Manassas, Va.). MDA-MB-231 cells were transfected with a pEGFP plasmid, and cells were selected using 1 mg/ml G418 (A.G. scientific, Inc.). MDA-MA-231 GFP cells obtained from monoclones were incubated in RPMI1640 (WELGENE, Korea) supplemented with 10% fetal bovine serum, 1% penicillin/streptomycin (Gibco, BRL) and 250 μg/ml G418 (A.G. scientific, Inc.). All cells were incubated in a humidified incubator at 37° C. under 5% CO2. For immunostaining, endothelial cells were imaged using mouse monoclonal antibodies specific for human ZO-1 (Alexa Fluor594, clone ZO1-1A12, molecular probe), CD31 ([…], clone WM59, Biolegends), VE-cadherin (eBioscience) and claudin-5 (Invitrogen), and the nucleus was stained with Hoechst 33342 (molecular probe). Bevacizumab (Avastin, Genentech) was diluted to 500 μg/ml, and microvessels introduced with cancer were treated with the dilution in cancer angiogenesis experiments. Recombinant human TNF-alpha (PetroTech) was diluted to 5 ng/ml, and microvessels were treated with the dilution at 24 hours before introduction of cancer. […]
as §2
The present inventors analyzed the angiogenic potential of cancer cells by using the microvessels having a smooth vessel wall. […]

[6] = 3 days after introduction of U87MG cells, versus U87MG without bevacizumab

Row | Molecule | VE-cadherin junction morphology [1] | rate of cancer intravasation relative to control ([2]; 5 ng/ml TNF-α 24 hours before introduction of MDA-MB-231 cells, n=7 chips per condition) | rate of cancer intravasation (in words) ([2]; TNF-α-treated microvessels compared with control experiment, p<0.0005) | permeability of TNF-α-treated microvessels ([3]; mean±standard error, n=5 chips) | permeability relative to normal condition ([3]; versus normal condition) | response of pericytes and blood vessels [4] | coverage area of sprouts [5, 6] | number of sprouts [5, 6] | microvascular sprouts / vessel boundary in micrographs ([5]; microscopic images 3 days after injection of cancer cells (FIG. 4A))
1 | TNF-α | disrupted and pleated form; also recorded: disrupted continuity and wrinkled morphology | 3 fold | very high rate of cancer intravasation | 2.22±0.67×10^−6 cm/s | 1.4 fold | pericytes sprouted out from the blood vessels and formed many filopodia |  |  | 
2 | bevacizumab: anti-vascular endothelial growth factor (anti-VEGF) antibody, Avastin, Genentech |  |  |  |  |  |  | significantly reduced; also recorded: drastically decreasing | significantly reduced; also recorded: drastically decreasing | greatly reduced; also recorded: flat boundary without angiogenic sprouts
3 | B1 |  |  |  |  |  | pericytes sprouted out from the blood vessels and formed many filopodia |  |  | 
